Data published in ChEMBL document CHEMBL4619760, “Anti-inflammatory Efficacy of Combined Natural Alkaloid Berberine and S1PR Modulator Fingolimod at Low Doses in Ulcerative Colitis Preclinical Models” (J Nat Prod, 2020).
Active and inactive are the calls of the source. The rule behind the calls is not given here.

Columns and labels:
[1] = tested on: Mus musculus; assay: Anti-colitis activity against DSS-induced C57BL/6 mouse model of chronic relapsing colitis assessed as reduction in disease activity index at 40 mg/kg, po administered once daily for 30 days starting from day 13 post DSS-challenge and measured on day 24; assay type: functional, organism-based
[2] = tested on: Mus musculus; assay: Anti-colitis activity against DSS-induced C57BL/6 mouse model of subchronic relapsing colitis assessed as reduction in stool consistency scores at 40 mg/kg, po administered once daily for 14 days starting from day 5 post DSS challenge and measured on day 19; assay type: functional, organism-based
[3] = tested on: Mus musculus; assay: Anti-colitis activity against DSS-induced C57BL/6 mouse model of subchronic relapsing colitis assessed as reduction in colon swelling at 40 mg/kg, po administered once daily for 14 days starting from day 5 post DSS-challenge; assay type: functional, organism-based
[4] = tested on: Mus musculus; assay: Anti-colitis activity against DSS-induced C57BL/6 mouse model of chronic relapsing colitis assessed as reduction in stool bleeding at 40 mg/kg, po administered once daily for 30 days starting from day 13 post DSS-challenge measured on day 43; assay type: functional, organism-based
[5] = tested on: Mus musculus; assay: Anti-colitis activity against DSS-induced C57BL/6 mouse model of chronic relapsing colitis assessed as reversal of DSS-induced colon shortening at 40 mg/kg, po administered once daily for 30 days starting from day 13 post DSS-challenge; assay type: functional, organism-based
[6] = tested on: Mus musculus; assay: (§1) Anti-colitis activity against DSS-induced C57BL/6 mouse model of chronic relapsing colitis assessed as reduction in DSS-induced inflammatory cell infiltration at 40 mg/kg, po administered once daily for 30 days starting from day 13 post DSS-challenge by hematoxylin and eosin staining based light microscopic analysis; assay type: functional, organism-based
[7] = tested on: Mus musculus; assay: Anti-colitis activity against DSS-induced C57BL/6 mouse model of subchronic relapsing colitis assessed as reduction in DSS-induced colon swelling at 40 mg/kg, po administered once daily for 30 days starting from day 13 post DSS-challenge; assay type: functional, organism-based
[8] = tested on: Mus musculus; assay: Anti-colitis activity against DSS-induced C57BL/6 mouse model of chronic relapsing colitis assessed as reduction in disease activity index at 40 mg/kg, po administered once daily for 30 days starting from day 13 post DSS-challenge and measured on day 43; assay type: functional, organism-based
[9] = Toxicity in DSS-induced C57BL/6 mouse model of chronic relapsing colitis assessed as induction of abnormalities in liver at 40 mg/kg, po administered once daily for 30 days starting from day 13 post DSS-challenge by hematoxylin and eosin staining based light microscopic analysis; assay type: organism-based; conditions: in vivo, 720 h
[10] = tested on: Mus musculus; assay: Anti-colitis activity against DSS-induced C57BL/6 mouse model of subchronic relapsing colitis assessed as reduction in stool bleeding scores at 40 mg/kg, po administered once daily for 14 days starting from day 5 post DSS challenge and measured on day 19; assay type: functional, organism-based
[11] = tested on: THP-1; assay: Antiinflammatory activity in human THP1 cells assessed as reduction in LPS-induced IL6 mRNA level at 1 uM incubated for 1 hr followed by LPS challenge and measured after 4 to 6 hrs by q-PCR method; assay type: functional, cell-based
[12] = tested on: Mus musculus; assay: Effect on total STAT3 expression in DSS-induced C57BL/6 mouse model of subchronic relapsing colitis at 40 mg/kg, po administered once daily for 14 days starting from day 5 post DSS-challenge by Western blot analysis; assay type: ADME, organism-based; conditions: in vivo, 336 h
[13] = target: Signal transducer and activator of transcription 3 (Homo sapiens) (UniProt P40763); assay: Inhibition of STAT3 activation in human THP1 cells assessed as reduction in LPS-induced phosphorylated STAT3 expression at 0.5 uM cotreated with 0.5 uM berberine incubated for 1 hr followed by LPS challenge and measured after 4 to 6 hrs by Western blot analysis; assay type: cell-based; conditions: THP-1
[14] = Toxicity in DSS-induced C57BL/6 mouse model of chronic relapsing colitis assessed as induction of abnormalities in lung at 40 mg/kg, po administered once daily for 30 days starting from day 13 post DSS-challenge by hematoxylin and eosin staining based light microscopic analysis; assay type: organism-based; conditions: in vivo, 720 h
[15] = tested on: Mus musculus; assay: Anti-colitis activity against DSS-induced C57BL/6 mouse model of subchronic relapsing colitis assessed as reduction in phosphorylated STAT3 level at 40 mg/kg, po administered once daily for 14 days starting from day 5 post DSS-challenge by Western blot analysis; assay type: functional, organism-based
[16] = target: Signal transducer and activator of transcription 3 (Homo sapiens) (UniProt P40763); assay: Inhibition of STAT3 activation in human THP1 cells assessed as reduction in LPS-induced phosphorylated STAT3 expression at 1 uM incubated for 1 hr followed by LPS challenge and measured after 4 to 6 hrs by Western blot analysis; assay type: cell-based; conditions: THP-1
[17] = Toxicity in DSS-induced C57BL/6 mouse model of chronic relapsing colitis assessed as induction of abnormalities in kidney at 40 mg/kg, po administered once daily for 30 days starting from day 13 post DSS-challenge by hematoxylin and eosin staining based light microscopic analysis; assay type: organism-based; conditions: in vivo, 720 h
[18] = tested on: Mus musculus; assay: Antiinflammatory activity against DSS-induced C57BL/6 mouse model of subchronic relapsing colitis assessed as reduction in IL6 mRNA level at 40 mg/kg, po administered once daily for 14 days starting from day 5 post DSS-challenge by RT-qPCR analysis; assay type: functional, organism-based
[19] = tested on: Mus musculus; assay: Antiinflammatory activity against DSS-induced C57BL/6 mouse model of subchronic relapsing colitis assessed as reduction in TNFalpha mRNA level at 40 mg/kg, po administered once daily for 14 days starting from day 5 post DSS-challenge by RT-qPCR analysis; assay type: functional, organism-based
[20] = tested on: Mus musculus; assay: Anti-colitis activity against DSS-induced C57BL/6 mouse model of chronic relapsing colitis assessed as reduction in stool bleeding at 40 mg/kg, po administered once daily for 30 days starting from day 13 post DSS-challenge measured on day 38; assay type: functional, organism-based
[21] = tested on: Mus musculus; assay: as §1, with “multiple erosive lesions in colon” for “inflammatory cell infiltration”; assay type: functional, organism-based
[22] = tested on: THP-1; assay: Antiinflammatory activity in human THP1 cells assessed as reduction in LPS-induced TNFalpha mRNA level at 1 uM incubated for 1 hr followed by LPS challenge and measured after 4 to 6 hrs by q-PCR method; assay type: functional, cell-based
[23] = tested on: Mus musculus; assay: Effect on total S1PR1 expression in DSS-induced C57BL/6 mouse model of subchronic relapsing colitis at 40 mg/kg, po administered once daily for 14 days starting from day 5 post DSS-challenge by Western blot analysis; assay type: ADME, organism-based; conditions: in vivo, 336 h
[24] = tested on: Mus musculus; assay: Anti-colitis activity against DSS-induced C57BL/6 mouse model of subchronic relapsing colitis assessed as reduction in DSS-induced colon shortening at 40 mg/kg, po administered once daily for 14 days starting from day 5 post DSS-challenge; assay type: functional, organism-based
[25] = Toxicity in DSS-induced C57BL/6 mouse model of chronic relapsing colitis assessed as induction of abnormalities in brain at 40 mg/kg, po administered once daily for 30 days starting from day 13 post DSS-challenge by hematoxylin and eosin staining based light microscopic analysis; assay type: organism-based; conditions: in vivo, 720 h
[26] = tested on: Mus musculus; assay: Antiinflammatory activity against DSS-induced C57BL/6 mouse model of subchronic relapsing colitis assessed as reduction in S1PR1 mRNA level at 40 mg/kg, po administered once daily for 14 days starting from day 5 post DSS-challenge by RT-qPCR analysis; assay type: functional, organism-based
[27] = tested on: Mus musculus; assay: Anti-colitis activity against DSS-induced C57BL/6 mouse model of subchronic relapsing colitis assessed as reduction in disease activity index at 40 mg/kg, po administered once daily for 14 days starting from day 5 post DSS challenge and measured on day 19; assay type: functional, organism-based
[28] = tested on: Mus musculus; assay: Anti-colitis activity against DSS-induced C57BL/6 mouse model of subchronic relapsing colitis assessed as effect on body weight at 40 mg/kg, po administered once daily for 14 days starting from day 5 post DSS challenge and measured after day 12 to day 18; assay type: functional, organism-based
[29] = tested on: Mus musculus; assay: Anti-colitis activity against DSS-induced C57BL/6 mouse model of subchronic relapsing colitis assessed as reduction in spleen swelling at 40 mg/kg, po administered once daily for 14 days starting from day 5 post DSS-challenge; assay type: functional, organism-based
[30] = tested on: Mus musculus; assay: Anti-colitis activity against DSS-induced C57BL/6 mouse model of chronic relapsing colitis assessed as reduction in stool consistency score at 40 mg/kg, po administered once daily for 30 days starting from day 13 post DSS-challenge measured on day 24; assay type: functional, organism-based
[31] = tested on: Mus musculus; assay: Anti-colitis activity against DSS-induced C57BL/6 mouse model of chronic relapsing colitis assessed as reduction in stool consistency score at 40 mg/kg, po administered once daily for 30 days starting from day 13 post DSS-challenge measured on day 43; assay type: functional, organism-based
[32] = tested on: Mus musculus; assay: Antiinflammatory activity against DSS-induced C57BL/6 mouse model of subchronic relapsing colitis assessed as reduction in IL17 mRNA level at 40 mg/kg, po administered once daily for 14 days starting from day 5 post DSS-challenge by RT-qPCR analysis; assay type: functional, organism-based
[33] = tested on: Mus musculus; assay: as §1, with “loss of colon crypt and columnar epithelium” for “inflammatory cell infiltration”; assay type: functional, organism-based
[34] = Toxicity in DSS-induced C57BL/6 mouse model of chronic relapsing colitis assessed as induction of abnormalities in heart at 40 mg/kg, po administered once daily for 30 days starting from day 13 post DSS-challenge by hematoxylin and eosin staining based light microscopic analysis; assay type: organism-based; conditions: in vivo, 720 h

Chain of Signal transducer and activator of transcription 3 (Homo sapiens) (P40763 whole entry): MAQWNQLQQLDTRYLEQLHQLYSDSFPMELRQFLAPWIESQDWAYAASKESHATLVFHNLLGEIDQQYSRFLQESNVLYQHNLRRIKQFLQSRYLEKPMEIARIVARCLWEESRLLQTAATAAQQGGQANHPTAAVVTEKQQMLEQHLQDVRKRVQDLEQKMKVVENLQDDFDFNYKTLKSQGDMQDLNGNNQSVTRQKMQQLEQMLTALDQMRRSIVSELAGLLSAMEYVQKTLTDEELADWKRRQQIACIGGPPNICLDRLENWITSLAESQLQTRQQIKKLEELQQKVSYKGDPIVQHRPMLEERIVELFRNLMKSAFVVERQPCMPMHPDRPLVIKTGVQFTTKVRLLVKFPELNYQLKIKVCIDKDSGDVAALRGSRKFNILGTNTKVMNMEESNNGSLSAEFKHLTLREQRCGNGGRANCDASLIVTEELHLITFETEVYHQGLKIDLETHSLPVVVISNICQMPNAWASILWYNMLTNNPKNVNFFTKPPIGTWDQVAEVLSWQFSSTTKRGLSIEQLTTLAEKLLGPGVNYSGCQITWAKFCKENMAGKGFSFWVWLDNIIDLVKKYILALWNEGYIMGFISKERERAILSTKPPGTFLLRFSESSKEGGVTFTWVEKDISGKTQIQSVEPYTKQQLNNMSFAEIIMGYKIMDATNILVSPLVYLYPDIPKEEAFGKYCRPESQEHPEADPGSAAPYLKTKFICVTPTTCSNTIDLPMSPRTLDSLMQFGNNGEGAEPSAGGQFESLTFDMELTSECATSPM

## COc1ccc2cc3[n+](cc2c1OC)CCc1cc2c(cc1-3)OCO2.[Cl-] [BERBERINE CHLORIDE]
[1]
  Activity: Active
[2]
  Activity: Active
[3]
  Activity: inactive
[4]
  Activity: Active
[5]
  Activity: Active
[6]
  Activity: Active
[7]
  Activity: inactive
[8]
  Activity: Active
[9]
  Activity: Non-Toxic
[10]
  Activity: Active
[11]
  Activity: Active
[12]
  Activity: Non-Toxic
[13]
  inhibition: Active
[14]
  Activity: Non-Toxic
[15]
  Activity: Active
[16]
  inhibition: Active
[17]
  Activity: Non-Toxic
[18]
  Activity: Active
[19]
  Activity: Active
[20]
  Activity: Active
[21]
  Activity: Active
[22]
  Activity: Active
[23]
  Activity: Non-Toxic
[24]
  Activity: Active
[25]
  Activity: Non-Toxic
[26]
  Activity: inactive
[27]
  Activity: Active
[28]
  Activity: inactive
[29]
  Activity: inactive
[30]
  Activity: Active
[31]
  Activity: Active
[32]
  Activity: Active
[33]
  Activity: Active
[34]
  Activity: Non-Toxic
